# Measured values reported in US20240270701A1, “BETA ADRENERGIC AGONIST AND METHODS OF USING THE SAME” (Curasen Therapeutics, Inc., priority 2021, published 2024).
# Read-outs that look alike come from different tables or passages of the source.
# Columns and labels:
# [1] = biological target: T1, B1-AR (Homo sapiens, UniProt P08588); assay: cAMP Gs dynamic HTRF assay, cells expressing beta-adrenergic receptor (CHO-K1), B1-AR; type: cell-based; details: for EC50: read-out: pEC50 [B1-AR] (converted); for Emax: read-out: Emax (% iso) (%) [B1-AR]
# T1 construct: expressed in transfected cells; host or cells: CHO-K1
# T1 sequence (P08588 whole entry, species assumed): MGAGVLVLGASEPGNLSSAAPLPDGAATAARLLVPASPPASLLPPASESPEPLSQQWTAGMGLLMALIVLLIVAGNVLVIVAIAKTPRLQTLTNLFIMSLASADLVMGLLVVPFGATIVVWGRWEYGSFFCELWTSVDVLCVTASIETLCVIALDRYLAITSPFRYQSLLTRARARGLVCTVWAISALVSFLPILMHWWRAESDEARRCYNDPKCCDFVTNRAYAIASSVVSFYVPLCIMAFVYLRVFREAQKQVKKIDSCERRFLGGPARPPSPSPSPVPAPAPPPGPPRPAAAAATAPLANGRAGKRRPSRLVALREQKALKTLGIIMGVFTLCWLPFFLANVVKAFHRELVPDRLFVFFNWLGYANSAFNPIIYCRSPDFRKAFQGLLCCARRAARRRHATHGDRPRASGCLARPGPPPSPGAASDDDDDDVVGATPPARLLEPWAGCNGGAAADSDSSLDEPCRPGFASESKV
# Procedure: (§1) cAMP homogeneous time-resolved fluorescence (HTRF): experimental methods. Compound efficacy is determined using the cAMP Gs dynamic HTRF assay (Cisbio, catalog #62AM4PEC) largely following the manufacturer's instructions, also detailed below.
# (§2) Standard serial dilution curves are 10-point, 5-fold dilutions starting from a highest concentration of 10 μM. Controls present on every assay plate are 0.1% DMSO (vehicle control), 1 μM isoproterenol (full beta-adrenergic agonist control) and […] xamoterol (partial beta-adrenergic agonist control). […] Assay plates are centrifuged at 500×g for 10 seconds. Compounds and IBMX are prepared at 2× final dose to compensate for addition of cells.
# (§3) Cell preparation: 1× stimulation buffer, washing PBS (Dulbecco's phosphate-buffered saline, − Mg − Ca; Caisson Labs, catalog #PBL01), assay PBS (Dulbecco's phosphate-buffered saline, + Mg, + Ca; Caisson Labs, catalog #PBL02) and Versene (0.02% EDTA disodium salt solution in PBS without calcium or magnesium; Caisson Labs, catalog #EDL01) are pre-warmed to 37° C. Cells expressing beta-adrenergic receptor were washed in washing PBS to remove growth medium and then released from the surface by incubating with Versene for 5-10 minutes at 37° C. Cells are harvested using assay PBS, counted manually by hemocytometer or by an automated cell counter, pelleted by centrifugation (200×g, 5 minutes) and resuspended in 37° C. 1× stimulation buffer to a final density of 1.5×10^6 cells/mL. 5 μL of the suspended cell solution (7500 cell total) are added to all wells of the 384 well assay plate, the assay plate was covered with an Axygen® plate seal (Corning PCR-SP) and incubated in a humidified 37° C. environment supplemented with 5% CO2 for 30 minutes.
# (§4) HTRF reagent addition, reading and data analysis: After 30 minutes of cell stimulation with test compound, the assay plates are centrifuged at 500×g for 10 seconds, and incubation was stopped with the addition of 5 μL cAMP-D2 acceptor, diluted 1:21 in detection and lysis buffer 2 (Cisbio 62CL2FDF) was added to all cells. Subsequently, 5 μL Anti-cAMP-Eu Donor, diluted 1:21 in detection and lysis buffer 2, was added to cells. Plates were sealed and reactions gently ‘vortexed’ at 900 rpm on a Heidolph Titramax 1000 for at least 30 minutes at room temperature. Plates are centrifuged again at 500×g for 10 seconds, and HTRF was measured using a Tecan Spark plate reader at 50 flashes per well. […] Potency estimates (EC50 and pEC50) are derived from the four-parameter nonlinear regression of the concentration-effect curve and an estimate of relative efficacy is determined by comparing the magnitude of the test compound HTRF signal window (min−max dose) with the signal window of the full agonist control, isoproterenol.
# [2] = biological target: T2, B2-AR (Homo sapiens, UniProt P07550); assay: cAMP Gs dynamic HTRF assay, cells expressing beta-adrenergic receptor (CHO-K1), B2-AR; type: cell-based; details: for EC50: read-out: pEC50 [B2-AR] (converted); for Emax: read-out: Emax (% iso) (%) [B2-AR]
# T2 construct: expressed in transfected cells; host or cells: CHO-K1
# T2 sequence (P07550 whole entry, species assumed): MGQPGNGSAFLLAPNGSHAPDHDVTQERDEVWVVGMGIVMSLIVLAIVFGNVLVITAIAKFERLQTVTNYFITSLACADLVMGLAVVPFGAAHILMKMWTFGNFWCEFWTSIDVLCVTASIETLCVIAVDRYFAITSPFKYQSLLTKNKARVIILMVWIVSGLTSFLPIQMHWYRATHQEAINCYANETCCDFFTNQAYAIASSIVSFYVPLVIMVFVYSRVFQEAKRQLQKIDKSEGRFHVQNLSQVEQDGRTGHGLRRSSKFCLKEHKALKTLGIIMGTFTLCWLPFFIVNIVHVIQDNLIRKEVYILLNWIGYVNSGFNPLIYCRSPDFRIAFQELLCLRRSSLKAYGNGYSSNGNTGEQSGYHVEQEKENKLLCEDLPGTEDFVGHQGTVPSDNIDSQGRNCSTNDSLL
# Procedure: as §1, §2, §3, §4
# [3] = relative to full agonist isoproterenol
# [4] = CHO-K1 cells, relative to full agonist isoproterenol
# [5] = CHO-K1, CHO-K1 cells, relative to full agonist isoproterenol
SMILES,EC50 ([1]; cAMP HTRF) [nM],"Emax [1, 3] [%]","EC50 ([2]; CHO-K1 cells, cAMP HTRF) [nM]","Emax [2, 4] [%]","Emax [2, 5] [%]",pEC50 [B1-AR] ([1]; cAMP HTRF),"Emax (% iso) (%) [B1-AR] [1, 3]","pEC50 [B2-AR] ([2]; CHO-K1 cells, cAMP HTRF)","Emax (% iso) (%) [B2-AR] [2, 4]"
CC(C)(C)CNC[C@H](O)c1cc(C#N)cc2[nH]ncc12 [I-69],> 1000,50 to 70,100 to 1000,–,70 to 90,–,–,–,–
CNc1ncc([C@@H](O)CNC(C)(C)C)cn1 [I-70],100 to 1000,70 to 90,10 to 100,50 to 70,–,–,–,–,–
Cc1cc([C@@H](O)CNC(C)(C)C)cc2cccnc12 [I-71],100 to 1000,50 to 70,10 to 100,< 50,–,–,–,–,–
Cc1ccnc2ccc([C@@H](O)CNC(C)(C)C)cc12 [I-72],100 to 1000,50 to 70,10 to 100,–,< 50,–,–,–,–
COc1ccnc2ccc([C@@H](O)CNC(C)(C)C)cc12 [I-74],100 to 1000,< 50,> 1000,–,< 50,–,–,–,–
O[C@@H](CNCC1CC1)c1ccc(F)c2[nH]ncc12 [I-75],< 10,70 to 90,< 10,–,> 90,–,–,–,–
CC(C)(C)NC[C@H](O)c1ccc2ncncc2c1 [I-77],> 1000,50 to 70,100 to 1000,–,50 to 70,–,–,–,–
CC(C)(C)NC[C@H](O)c1cc2cccnc2cc1Cl [I-80],100 to 1000,70 to 90,10 to 100,–,< 50,–,–,–,–
CC(C)(C)NC[C@H](O)c1ccc2nccnc2c1 [I-83],10 to 100,70 to 90,10 to 100,50 to 70,–,–,–,–,–
Cn1ncc2c([C@@H](O)CNC(C)(C)C)cc(F)cc21 [I-84],–,–,–,–,–,B (B=>7-8),B (B=>70-90%),A (A=>8),B (B=>70-90%)
CC(C)(C)NC[C@H](O)c1cccc2c(F)n[nH]c12 [I-85],100 to 1000,70 to 90,100 to 1000,–,50 to 70,–,–,–,–
CC(C)(C)NC[C@H](O)c1cnc(N)s1 [I-86],> 1000,70 to 90,100 to 1000,–,70 to 90,–,–,–,–
CC(C)(C)CNC[C@H](O)c1cccc2[nH]nc(F)c12 [I-90],100 to 1000,70 to 90,10 to 100,–,> 90,–,–,–,–
CC(C)(C)CNC[C@H](O)c1cc(F)cc2[nH]ncc12 [I-92],10 to 100,70 to 90,< 10,–,> 90,–,–,–,–

# The next lines start with results.
EC50 ([1]; cAMP HTRF) [nM],"Emax [1, 3] [%]","EC50 ([2]; CHO-K1 cells, cAMP HTRF) [nM]","Emax [2, 4] [%]",SMILES,"Emax [2, 5] [%]",pEC50 [B1-AR] ([1]; cAMP HTRF),"Emax (% iso) (%) [B1-AR] [1, 3]","pEC50 [B2-AR] ([2]; CHO-K1 cells, cAMP HTRF)","Emax (% iso) (%) [B2-AR] [2, 4]"
10 to 100,70 to 90,< 10,70 to 90,CC(C)(C)CNC[C@H](O)c1ccc(Cl)c2[nH]ncc12 [I-68],–,–,–,–,–
> 1000,< 50,100 to 1000,< 50,Cc1cnc2ccc([C@@H](O)CNC(C)(C)C)cc2c1 [I-73],–,–,–,–,–
< 10,70 to 90,< 10,> 90,O[C@@H](CNCC1CC1)c1cccc2[nH]ncc12 [I-76],–,–,–,–,–
100 to 1000,70 to 90,100 to 1000,> 90,Cn1ccc(CNC[C@H](O)c2cccc3[nH]nc(F)c23)n1 [I-78],–,–,–,–,–
> 1000,> 90,100 to 1000,< 50,Cc1cc2ncccc2cc1[C@@H](O)CNC(C)(C)C [I-79],–,–,–,–,–
10 to 100,70 to 90,< 10,> 90,CC1(CNC[C@H](O)c2ccc(F)c3[nH]ncc23)CC1 [I-81],–,–,–,–,–
> 1000,< 50,> 1000,< 50,Cc1ccc2cc([C@@H](O)CNC(C)(C)C)ccc2n1 [I-82],–,–,–,–,–
100 to 1000,50 to 70,10 to 100,70 to 90,CC(C)(C)CNC[C@H](O)c1ccc(F)c2[nH]ncc12 [I-87],–,–,–,–,–
100 to 1000,70 to 90,< 10,> 90,CC(C)(C)CNC[C@H](O)c1cccc2[nH]ncc12 [I-88],–,–,–,–,–
> 1000,< 50,> 1000,< 50,CC1C(=O)Nc2cccc([C@@H](O)CNC(C)(C)C)c21 (stereo partly drawn) [I-91],–,–,–,–,–
